{
  "source": "patent US10071051B2",
  "about": "“WT1 peptide cancer vaccine composition for transdermal administration” (NITTO DENKO CORPORATION, priority 2013, dated 2018)",
  "data": [
    {"system": "IFN-γ-producing cells (antigen-specific cellular immunity)", "experiment": "Mouse immunization test 2 (tape preparation), IFN-γ ELISPOT", "type": "in vivo, genetically modified mouse", "settings": "compared with acid-free comparative example", "protocol": "(§1) Mouse immunization test was performed with the cream formulations using a model animal for immunological evaluation. Evaluation of the immunity induction level was performed by the ELISPOT method. Specifically, the hair of the back of the mouse was cut. The mouse was kept until it recovered from the skin damage due to the hair cutting. After that, a sample was applied to the back of the mouse for the predetermined time, and then removed. Then, the mouse was kept for predetermined days and the level of the antigen-specific cellular immunity was evaluated. After predetermined days from the application of the sample, the spleen was isolated and a spleen cell suspension was prepared. Spleen cells (3×10^6 cells/well) and the antigen peptide (100 μM) together with the culturing medium were placed into a well of an ELISPOT plate on which an anti-mouse IFN-γ antibody had been immobilized. The plate was cultured for 20 hours under the condition of 37° C. and 5% CO2. The number of the spots representing IFN-γ-producing cells (spot number/3×10^6 cells) was evaluated by the ELISPOT method. In all cases, 4 mg of the cream formulation was applied once for 24 hours and the spleen was isolated 6 days after the completion of the application.\nMouse Immunization Test 2 (Tape Preparation)\nUsing thus obtained tape preparation, mouse immunization test 2 was performed in the same manner as in the mouse immunization test 1. The preparation was applied once for 24 hours/week and a spleen was isolated 6 days after administration. Genetically modified mouse which can be used to evaluate the cellular immunity inducing ability of the HLA-A*0201 type MHC restricted peptide was used as model animal for immunological evaluation.\nIn Example 69, the skin was injured with a microcutter (MICRO FEATHER No. 7330G, manufactured by FEATHER) before the application of the preparation.", "values": [
      {"smiles": "CCCCCCCCCC(=O)O", "note": "[decanoic acid]", "cellular immunity induction, in words (acid blended in tape preparation)": "strong cellular immunity was induced"},
      {"smiles": "CC(C)CCCCCCCCCCCCCCC(=O)O", "note": "[isostearic acid]", "cellular immunity induction, in words (acid blended in tape preparation)": "excellent results"},
      {"smiles": "CC(O)C(=O)O", "note": "(stereo not drawn) [lactic acid]", "cellular immunity induction, in words (acid blended in tape preparation)": "excellent results"},
      {"smiles": "CCCCCCCCCCCC(=O)O", "note": "[lauric acid]", "cellular immunity induction, in words (acid blended in tape preparation)": "excellent results"},
      {"smiles": "CCCCCCCCCCCCCC(=O)O", "note": "[myristic acid]", "cellular immunity induction, in words (acid blended in tape preparation)": "excellent results"},
      {"smiles": "CCCCCCCC/C=C\\CCCCCCCC(=O)O", "note": "[oleic acid]", "cellular immunity induction, in words (acid blended in tape preparation)": "excellent results"}
    ]},
    {"system": "IFN-γ-producing cells (antigen-specific cellular immunity)", "experiment": "Mouse immunization test 3 (liquid formulation for external use), IFN-γ ELISPOT", "type": "in vivo, C57BL/6 mouse", "settings": "compared with acid-free comparative example", "protocol": "as §1\nMouse Immunization Test 3 (Liquid Formulation for External Use)\nUsing a liquid formulation for external use produced as described above, mouse immunization test was performed in the same manner as that in the mouse immunization test 1. The dose was 67 μL as described above. The liquid formulation was applied once for 24 hours/week and a spleen was isolated 6 days after completion of the application. The mouse used was a C57BL/6.", "values": [
      {"smiles": "O=C(O)CC(O)C(=O)O", "note": "(racemic) [malic acid]", "cellular immunity induction, in words (acid added to liquid formulation)": "effective"},
      {"smiles": "O=C(O)CC(O)(CC(=O)O)C(=O)O", "note": "[citric acid]", "cellular immunity induction, in words (acid added to liquid formulation)": "effective"},
      {"smiles": "CC(O)C(=O)O", "note": "(stereo not drawn) [lactic acid]", "cellular immunity induction, in words (acid added to liquid formulation)": "effective"},
      {"smiles": "O=C(O)/C=C\\C(=O)O", "note": "[maleic acid]", "cellular immunity induction, in words (acid added to liquid formulation)": "effective"},
      {"smiles": "CS(=O)(=O)O", "note": "[methanesulfonic acid]", "cellular immunity induction, in words (acid added to liquid formulation)": "effective"},
      {"smiles": "O=C(O)c1ccccc1O", "note": "[salicylic acid]", "cellular immunity induction, in words (acid added to liquid formulation)": "effective"}
    ]}
  ]
}
